Data on 24 compounds can be found in US20160229839A1, “Factor XIa Inhibitors” (Merck Sharp & Dohme Corp., priority 2013, published 2016).

The Ki is the equilibrium dissociation constant of an inhibitor or competing ligand from its target.

The target in this test is T1, purified human Factor XIa (Homo sapiens, UniProt P03951).
T1 construct: purified human Factor XIa; purchased Sekisui Diagnostics
The experiment in a line: Factor XIa Assay (fluorogenic substrate Z-Gly-Pro-Arg-AFC). The format is biochemical. The settings on record: purified human Factor XIa 40 pM; Z-Gly-Pro-Arg-AFC 100 μM; 50 mM HEPES pH 7.4; read-out: hFXIa Ki (nM), Factor XIa inhibition. On the procedure: The effectiveness of compound of the present invention as inhibitors of Coagulation Factor XIa can be determined using a relevant purified serine protease, and an appropriate synthetic substrate. The rate of hydrolysis of the chromogenic or fluorogenic substrate by the relevant serine protease was measured both in the absence and presence of compounds of the present invention. Assays were conducted at room temperature or at 37° C. […] A decrease in the rate of fluorescence change in the presence of inhibitor is indicative of enzyme inhibition. Such methods are known to one skilled in the art. The results of this assay are expressed as the inhibitory constant, Ki.
Factor XIa determinations were made in 50 mM HEPES buffer at pH 7.4 containing 150 mM NaCl, 5 mM CaCl2, and 0.1% PEG 8000 (polyethylene glycol; J T Baker or Fisher Scientific). Determinations were made using purified human Factor XIa at a final concentration of 40 pM (Sekisui Diagnostics) and he synthetic substrate, Z-Gly-Pro-Arg-AFC, TFA salt (Sigma #C0980) at a concentration of 100 μM.
Activity assays were performed by diluting a stock solution of substrate at least tenfold to a final concentration ≦0.1 Km into a solution containing enzyme or enzyme equilibrated with inhibitor. Times required to achieve equilibration between enzyme and inhibitor were determined in control experiments. Initial velocities of product formation in the absence (Vo) or presence of inhibitor (Vi) were measured. Assuming competitive inhibition, and that unity is negligible compared Km/[S], [I]/e, and [I]/e (where [S], [I], and e respectively represent the total concentrations, of substrate, inhibitor and enzyme), the equilibrium constant (Ki) for dissociation of the inhibitor from the enzyme can be obtained from the dependence of Vo/Vi on [I] shown in the following equation.

T1 sequence (P03951 388-625 limits assumed): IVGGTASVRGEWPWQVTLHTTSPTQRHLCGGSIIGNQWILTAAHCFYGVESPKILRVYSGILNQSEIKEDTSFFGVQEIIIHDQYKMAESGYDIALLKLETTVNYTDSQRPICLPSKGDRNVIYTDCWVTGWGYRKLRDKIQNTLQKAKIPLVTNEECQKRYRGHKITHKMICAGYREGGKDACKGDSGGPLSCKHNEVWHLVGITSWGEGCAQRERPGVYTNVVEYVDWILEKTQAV
T1 sequence (P03951 19-387 partner limits assumed): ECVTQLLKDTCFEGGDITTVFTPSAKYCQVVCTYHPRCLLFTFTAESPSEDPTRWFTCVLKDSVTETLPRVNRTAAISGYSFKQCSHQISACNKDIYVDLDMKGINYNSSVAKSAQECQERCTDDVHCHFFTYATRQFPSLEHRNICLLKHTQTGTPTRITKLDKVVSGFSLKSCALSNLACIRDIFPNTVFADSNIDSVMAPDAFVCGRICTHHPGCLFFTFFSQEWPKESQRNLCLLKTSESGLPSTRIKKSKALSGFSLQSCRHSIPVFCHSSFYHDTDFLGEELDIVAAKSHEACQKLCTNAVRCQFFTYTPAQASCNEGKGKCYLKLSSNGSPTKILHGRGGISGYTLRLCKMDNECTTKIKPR

For the compound `Nc1ccc(C2CCCN(C(=O)/C=C/c3cc(Cl)ccc3-n3cnnn3)C2C(=O)Nc2ccc(C(=O)O)cc2)cc1` (stereo not drawn) [Example 1-33, (E)-4-(3-(4-aminophenyl)-1-(3-(5-chloro-2-(1H-tetrazol-1-yl)phenyl)acryloyl)piperidine-2-carboxamido)benzoic], the Ki was found to be 46.7 nM. As for `O=C(/C=C/c1cc(Cl)ccc1-n1cnnn1)Nc1ccc(C2CCCN(C(=O)/C=C/c3cc(Cl)ccc3-n3cnnn3)C2C(=O)Nc2ccc(C(=O)O)cc2)cc1` (stereo not drawn) [Example 1-34, 4-(3-(4-((E)-3-(5-chloro-2-(1H-tetrazol-1-yl)phenyl)acrylamido)phenyl)-1-((E)-3-(5-chloro-2-(1H-tetrazol-1-yl)phenyl)acryloyl)piperidine-2-carboxamido)benzoic acid], the figure is 24.9 nM; as for `O=C(O)c1ccc(NC(=O)C2C(c3ccc(OC(F)(F)F)cc3)CCCN2C(=O)/C=C/c2cc(Cl)ccc2-n2cnnn2)cc1` (stereo not drawn) [Example 1-35, (E)-4-(1-(3-(5-chloro-2-(1H-tetrazol-1-yl)phenyl)acryloyl)-3-(4-(tifluoromethoxy)phenyl)piperidine-2-carboxamido)benzoic acid], 122 nM. With `NC(=O)c1ccc(C2CCCN(C(=O)/C=C/c3cc(Cl)ccc3-n3cnnn3)C2C(=O)Nc2ccc(C(=O)O)cc2)cc1` (stereo not drawn) [Example 1-36, (E)-4-(3-(4-carbamoylphenyl)-1-(3-(5-chloro-2-(1H-tetrazol-1-yl)phenyl)acryloyl)piperidine-2-carboxamido)benzoic acid] the figure was 36.2 nM; with `Cc1cc(C2CCCN(C(=O)/C=C/c3cc(Cl)ccc3-n3cnnn3)C2C(=O)Nc2ccc(C(=O)O)cc2)ccc1F` (stereo not drawn) [Example 1-37, (E)-4-(1-(3-(5-chloro-2-(1H-tetrazol-1-yl)phenyl)acryloyl)-3-(4-fluoro-3-methylphenyl)piperidine-2-carboxamido)benzoic acid], 51.5 nM; with `COC(=O)Nc1ccc(-c2c[nH]c(C3C(c4ccccc4)CCCN3C(=O)/C=C/c3cc(Cl)ccc3-n3cnnn3)n2)cc1` (stereo not drawn) [Example 1-38, (E)-methyl (4-(2-(1-(3-(5-chloro-2-(1H-tetrazol-1-yl)phenyl)acryloyl)-3-phenylpiperidin-2-yl)-1H-imidazol-4-yl)phenyl)carbamate], 90 nM. With `NCC1CCC(C(=O)N2CCCC(c3ccccc3)C2C(=O)Nc2ccc(C(=O)O)cc2)CC1` (stereo not drawn) [Example 1-39, (4-(2-((4-carboxyphenyl)carbamoyl)-3-phenylpiperidine-1-carbonyl)cyclohexyl)methanaminium 2,2,2-trifluoroacetate] the figure was 45.6 nM; with `COC(=O)c1ccc(-c2c[nH]c(C3C(c4ccccc4)CCCN3C(=O)/C=C/c3cc(Cl)ccc3-n3cnnn3)n2)cc1` (stereo not drawn) [Example 1-40, (E)-methyl 4-(2-(1-(3-(5-chloro-2-(1H-tetrazol-1-yl)phenyl)acryloyl)-3-phenylpiperidin-2-yl)-1H-imidazol-4-yl)benzoate], > 10000 nM; with `O=C(/C=C/c1cc(Cl)ccc1-n1cnnn1)N1CCCC(c2ccccc2)C1c1nc(-c2ccccn2)c[nH]1` (stereo not drawn) [Example 1-41, (E)-3-(5-chloro-2-(1H-tetrazol-1-yl)phenyl)-1-(3-phenyl-2-(4-(pyridin-2-yl)-1H-imidazol-2-yl)piperidin-1-yl)prop-2-en-1-one], 3270 nM. With `O=C(/C=C/c1cc(Cl)ccc1-n1cnnn1)N1CCCC(c2ccccc2)C1c1nc(-c2ccncc2)c[nH]1` (stereo not drawn) [Example 1-42, (E)-3-(5-chloro-2-(1H-tetrazol-1-yl)phenyl)-1-(3-phenyl-2-(4-(pyridin-4-yl)-1H-imidazol-2-yl)piperidin-1-yl)prop-2-en-1-one], the inhibition constant (Ki) is 237 nM. With `NCc1ccc(C(=O)N2CCCC(c3ccccc3)C2C(=O)Nc2ccc(C(=O)O)cc2)cc1C1CC1` (stereo not drawn) [Example 1-43, (4-(2-((4-carboxyphenyl)carbamoyl)-3-phenylpiperidine-1-carbonyl)-2-cyclopropylphenyl)methanaminium 2,2,2-trifluoroacetate] the figure was 169 nM; with `COC(=O)Nc1ccc(-c2c[nH]c(C3C(c4ccccc4)CCCN3C(=O)/C=C/c3cc(Cl)ccc3-n3cnnn3)n2)c(Br)c1` (stereo not drawn) [Example 1-44, (E)-methyl (3-bromo-4-(2-(1-(3-(5-chloro-2-(1H-tetrazol-1-yl)phenyl)acryloyl)-3-phenylpiperidin-2-yl)-1H-imidazol-4-yl)phenyl)carbamate], 411 nM. As for `O=C(O)c1ccc(-c2c[nH]c(C3C(c4ccccc4)CCCN3C(=O)/C=C/c3cc(Cl)ccc3-n3cnnn3)n2)cc1` (stereo not drawn) [Example 1-45, (E)-4-(2-(1-(3-(5-chloro-2-(1H-tetrazol-1-yl)phenyl)acryloyl)-3-phenylpiperidin-2-yl)-1H-imidazol-4-yl)benzoic acid], the figure is 2820 nM; as for `COC(=O)Nc1ccc(-c2c[nH]c(C3C(c4ccccc4)CCCN3C(=O)/C=C/c3cc(Cl)ccc3-n3cnnn3)n2)cc1` (stereo not drawn) [Example 1-46, (E)-methyl (4-(2-(1-(3-(5-chloro-2-(1H-tetrazol-1-yl)phenyl)acryloyl)-3-phenylpiperidin-2-yl)-1H-imidazol-4-yl)phenyl)carbamate], 65.5 nM. As for `COC(=O)Nc1ccc(-c2c[nH]c(C3C(c4ccccc4)CCCN3C(=O)/C=C/c3cc(Cl)ccc3-n3cnnn3)n2)cc1` (stereo not drawn) [Example 1-47, (E)-methyl (4-(2-(1-(3-(5-chloro-2-(1H-tetrazol-1-yl)phenyl)acryloyl)-3-phenylpiperidin-2-yl)-1H-imidazol-4-yl)phenyl)carbamate], the figure is > 10000 nM; as for `COC(=O)Nc1ccc(-c2c[nH]c(C3C(c4ccccc4)CCCN3C(=O)/C=C/c3cc(Cl)ccc3-n3cnnn3)n2)c(N)c1` (stereo not drawn) [Example 1-48, (E)-methyl (3-amino-4-(2-(1-(3-(5-chloro-2-(1H-tetrazol-1-yl)phenyl)acryloyl)-3-phenylpiperidin-2-yl)-1H-imidazol-4-yl)phenyl)carbamate], 103 nM; as for `NCC1CCC(C(=O)N2CCCC(c3ccccc3)C2C(=O)Nc2ccc(C(=O)O)cc2)CC1` (stereo not drawn) [Example 1-49, 4-(1-(4-(aminomethyl)cyclohexanecarbonyl)-3-phenylpiperidine-2-carboxamido)benzoic acid], 916 nM. With `NCC1CCC(C(=O)N2CCCC(c3ccccc3)C2C(=O)Nc2ccc(C(=O)O)cc2)CC1` (stereo not drawn) [Example 1-50, 4-(1-(4-(aminomethyl)cyclohexanecarbonyl)-3-phenylpiperidine-2-carboxamido)benzoic acid], the Ki turned out to be 72.8 nM.

For `CCCC(=O)Nc1cc(NC(=O)OC)ccc1-c1c[nH]c(C2C(c3ccccc3)CCCN2C(=O)/C=C/c2cc(Cl)ccc2-n2cnnn2)n1` (stereo not drawn) [Example 1-51, (E)-methyl (3-butyramido-4-(2-(1-(3-(5-chloro-2-(1H-tetrazol-1-yl)phenyl)acryloyl)-3-phenylpiperidin-2-yl)-1H-imidazol-4-yl)phenyl)carbamate], the Ki was > 10000 nM. `COC(=O)Nc1ccc(-c2nc(C3C(c4ccccc4)CCCN3C(=O)/C=C/c3cc(Cl)ccc3-n3cnnn3)[nH]c2C)cc1` (stereo not drawn) [Example 1-52, (E)-methyl (4-(2-(1-(3-(5-chloro-2-(1H-tetrazol-1-yl)phenyl)acryloyl)-3-phenylpiperidin-2-yl)-5-methyl-1H-imidazol-4-yl)phenyl)carbamate]: the inhibition constant Ki is 95.8 nM. As for `O=C(/C=C/c1cc(Cl)ccc1-n1cnnn1)N1CCCC(c2ccccc2)C1c1nc(-c2ccc3[nH]c(=O)oc3c2)c[nH]1` (stereo not drawn) [Example 1-53, (E)-6-(2-(1-(3-(5-chloro-2-(1H-tetrazol-1-yl)phenyl)acryloyl)-3-phenylpiperidin-2-yl)-1H-imidazol-4-yl)benzo[d]oxazol-2(3H)-one], the figure is > 10000 nM. As for `COC(=O)Nc1ccc(-c2nc([C@@H]3[C@H](c4ccccc4)CCCN3C(=O)/C=C/c3cc(Cl)ccc3-n3cnnn3)[nH]c2Cl)cc1` [Example 1-55, Methyl (4-(5-chloro-2-((2S,3S)-1-((E)-3-(5-chloro-2-(1H-tetrazol-1-yl)phenyl)acryloyl)-3-phenylpiperidin-2-yl)-1H-imidazol-4-yl)phenyl)carbamate], the figure is 31.5 nM; as for `O=C(O)c1ccc(NC(=O)[C@H]2[C@@H](c3ccccc3)CCCN2C(=O)/C=C/c2cc(Cl)ccc2-n2cnnn2)cc1` [Example 1-56, 4-((2R,3R)-1-((E)-3-(5-chloro-2-(1H-tetrazol-1-yl)phenyl)acryloyl)-3-phenylpiperidine-2-carboxamido)benzoic acid], 4010 nM.

Turning to `O=C(O)c1cccc(-c2c[nH]c(C3C(c4ccccc4)CCCN3C(=O)/C=C/c3cc(Cl)ccc3-n3cnnn3)n2)c1` (stereo not drawn) [Example 1-58, (E)-3-(2-(1-(3-(5-chloro-2-(1H-tetrazol-1-yl)phenyl)acryloyl)-3-phenylpiperidin-2-yl)-1H-imidazol-4-yl)benzoic acid], the Ki came to 56.9 nM.
